The results in this text go back to patent publication EP2914280B1, “SOMATOSTATIN-DOPAMINE CHIMERIC ANALOGS” (IPSEN PHARMA S.A.S., priority 2012, dated 2014).

Like-named read-outs stand apart in the source and are kept apart here.

For experiment [1], the target named is T1, hDRD2 (Homo sapiens, UniProt P14416). Kind of experiment: biochemical. Set-up: expressed in transfected cells; host or cells: CHO-K1, pcDNA3.1/GS, zeocin-selected clonal line; membranes. The class given is binding.
Experiment [2] deals with T2, hSSTR1 (Homo sapiens, UniProt P30872).
T2 construct: expressed in transfected cells; host or cells: CHO-K1 (ATCC), pcDNA3.1, G418-selected clonal line; membranes
The experiment in a line: Somatostatin receptor radioligand binding assay (hSSTR1).

The target in experiment [3] is T1, hDRD2. Kind of experiment: cell-based. On the set-up: host or cells: 'Cells expressing hDRD2'. As to conditions: for Emax: read-out: hDRD2 %Emax ± SEM.
Protocol: (§5) The ability of select compounds according to the present invention to activate hSSTR2 and hDRD2 was determined by the intracellular calcium mobilization assay using FLIPR Calcium 4 assay kit (Molecular Devices).
(§6) Cells expressing hSSTR2 or hDRD2 were plated in 384-well microplates in tissue culture media and incubated for 16-24 hours at 37°C in a humidified atmosphere with 5% CO2. Medium was replaced by loading buffer containing Hank's buffered saline, 20 mM HEPES, 2.5 mM probenecid and Calcium 4 dye, and the plates were incubated at 37°C for 60 minutes.
Experiment [4] addresses T3, hSSTR5 (Homo sapiens, UniProt P35346).
T3 construct: expressed in transfected cells; host or cells: CHO-K1 (ATCC), pcDNA3.1, G418-selected clonal line; membranes
Kind of experiment: Somatostatin receptor radioligand binding assay (hSSTR5). Conditions: CHO-K1 cell membranes; 0.05 nM [125I-Tyr]-[DPhe-cyclo(Cys-Tyr-DTrp-Lys-Val-Cys)-Thr-NH2]; 60 minutes at 25°C; read-out: hSSTR5 Ki (nM) ± SEM.
Protocol: (§7) The affinities of a test compound for the human somatostatin receptors were determined by radioligand binding assays in CHO-K1 cells stably transfected with each of the human somatostatin receptor subtypes, hSSTR1-5. […] Clonal cell lines stably expressing each of the somatostatin receptors were obtained by transfection into CHO-K1 cells (ATCC) and subsequently selected with culture media containing 0.8 mg/mL of G418 (Life Technologies).
(§8) Membranes for in vitro receptor binding assays were obtained by the following procedures. […] The supernatant containing the plasma membranes was centrifuged at 100,000 x g for 30 minutes and the pellet was resuspended in buffer containing 20 mM glycine-glycine, 1 mM MgCl2, 250 mM sucrose, pH 7.2, for storage at -80°C.
(§9) For the SSTR1, 2 and 5 assays, membranes and various concentrations of test compounds were incubated in 96-well plates for 60 minutes at 25°C with 0.05 nM [^125I-Tyr^11]-SRIF-14 (for hSSTR1; PerkinElmer Life Science), 0.05 nM [^125I-Tyr]-seglitide (for hSSTR2; PerkinElmer Life Science) or 0.05 nM [^125I-Tyr]-[DPhe-cyclo(Cys-Tyr-DTrp-Lys-Val-Cys)-Thr-NH2] (for hSSTR5; PerkinElmer Life Science) in 50 mM HEPES, 0.2% BSA, 0.1 mM MgCl2, pH 7.5.

Experiment [5] addresses T4, hSSTR4 (Homo sapiens, UniProt P31391).
T4 construct: expressed in transfected cells; host or cells: CHO-K1 (ATCC), pcDNA3.1, G418-selected clonal line; membranes
The experiment in a line: Somatostatin receptor radioligand binding assay (hSSTR4). As to conditions: CHO-K1 cell membranes; 0.05 nM [125I-Tyr11]-SRIF-14; 60 minutes at 25°C; read-out: hSSTR4 Ki (nM) ± SEM. How it is done:
(§1) The affinities of a test compound for the human somatostatin receptors were determined by radioligand binding assays in CHO-K1 cells stably transfected with each of the human somatostatin receptor subtypes, hSSTR1-5. The cDNA coding sequences of hSSTR1 (GenBank accession No. NM_001049.1), hSSTR2 (GenBank accession No. XM_012697.1), hSSTR3 (GenBank accession No. XM_009963.1), hSSTR4 (GenBank accession No. NM_001052.1), and hSSTR5 (GenBank accession No. XM_012565.1) were subcloned into the mammalian expression vector pcDNA3.1 (Life Technologies). Clonal cell lines stably expressing each of the somatostatin receptors were obtained by transfection into CHO-K1 cells (ATCC) and subsequently selected with culture media containing 0.8 mg/mL of G418 (Life Technologies).
(§2) Membranes for in vitro receptor binding assays were obtained by the following procedures. CHO-K1 cells expressing one of the somatostatin receptors were homogenized in ice-cold buffer with 10 mM Tris-HCl, 5 mM EDTA, 3 mM EGTA, 1 mM phenylmethylsuphonyl fluoride, pH 7.6, using Polytron PT10-35GT (Kinematica) at 18,000 rpm for 30 seconds and centrifuged at 500 x g for 10 minutes. The supernatant containing the plasma membranes was centrifuged at 100,000 x g for 30 minutes and the pellet was resuspended in buffer containing 20 mM glycine-glycine, 1 mM MgCl2, 250 mM sucrose, pH 7.2, for storage at -80°C.
(§3) For the hSSTR3 and 4 assays, membranes and various concentrations of test compounds were incubated in 96-well plates for 60 minutes at 25°C with 0.05 nM [^125I-Tyr^11]-SRIF-14 (PerkinElmer Life Science) in 50 mM HEPES, 0.2% BSA, 5 mM MgCl2, 200 KIU/mL trasylol, 0.02 mg/mL bacitracin, and 0.02 mg/mL phenylmethylsuphonyl fluoride, pH 7.5.
(§4) The incubations were terminated by rapid filtration through GF/C glass microfiber filter plates (pre-wet with 0.3% polyethyleneimine and 0.1 % BSA) using a 96-well cell harvester (Brandel). Plates were washed six times with 1 mL/well aliquots of ice-cold buffer containing 50 mM Tris buffer, pH 7.7. Specific binding was defined as the total radioligand bound minus the bound in the presence of 1000 nM SRIF-14.

In experiment [6] the target is T5, hSSTR3 (Homo sapiens, UniProt P32745).
T5 construct: expressed in transfected cells; host or cells: CHO-K1 (ATCC), pcDNA3.1, G418-selected clonal line; membranes
Kind of experiment: Somatostatin receptor radioligand binding assay (hSSTR3). Conditions: CHO-K1 cell membranes; 0.05 nM [125I-Tyr11]-SRIF-14; 60 minutes at 25°C; read-out: hSSTR3 Ki (nM) ± SEM. The procedure:
as §1, §2, §3, §4

Experiment [7] has as its target T6, hSSTR2 (Homo sapiens, UniProt P30874).
T6 construct: host or cells: 'Cells expressing hSSTR2'
The experiment in a line: Somatostatin receptor radioligand binding assay (hSSTR2).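 Also: radioligand displacement on membranes of CHO-K1 cells stably transfected with human SSTR2, specific binding taken as total minus binding left with 1000 nM SRIF-14.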
Protocol: as §7, §8, §9

Experiment [8] addresses T6, hSSTR2. The experiment in a line: Intracellular calcium mobilization assay (FLIPR Calcium 4), hSSTR2.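 Also: agonist activity measured in cells expressing hSSTR2, seeded in 384-well plates, loaded with Calcium 4 dye, read-out as rise in intracellular calcium.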 It counts as cell-based. On the technique in general: Calcium flux is commonly read through the fluorescence of an indicator in the cells.
Protocol: as §5, §6
Where [9] appears, read: CHO-K1 cell membranes, […] [3H]-spiperone, 60 minutes at 25°C, read-out: hDRD2 Ki (nM) ± SEM.
Where [10] appears, read: CHO-K1 cell membranes, 0.05 nM [125I-Tyr11]-SRIF-14, 60 minutes at 25°C, read-out: hSSTR1 Ki (nM) ± SEM.
The mark [11] stands for this setting: CHO-K1 cell membranes, 0.05 nM [125I-Tyr]-seglitide, 60 minutes at 25°C, read-out: hSSTR2 Ki (nM) ± SEM.
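For Emax in this document: agonist activity at human DRD2 in DRD2-expressing cells, read as intracellular calcium mobilization with a FLIPR Calcium 4 fluorescent dye.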

T6 sequence (P30874 whole entry): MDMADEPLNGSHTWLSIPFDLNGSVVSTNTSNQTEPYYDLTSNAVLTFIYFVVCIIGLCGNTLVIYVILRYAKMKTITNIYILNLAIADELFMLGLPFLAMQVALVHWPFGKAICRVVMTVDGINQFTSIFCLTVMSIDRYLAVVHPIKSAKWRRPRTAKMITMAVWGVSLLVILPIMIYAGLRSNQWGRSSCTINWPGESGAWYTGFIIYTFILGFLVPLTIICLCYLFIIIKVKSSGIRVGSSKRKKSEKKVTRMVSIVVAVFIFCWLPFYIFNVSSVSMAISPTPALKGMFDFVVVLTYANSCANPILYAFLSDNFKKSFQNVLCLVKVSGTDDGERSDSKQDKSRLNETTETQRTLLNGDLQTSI
T1 sequence (P14416 whole entry): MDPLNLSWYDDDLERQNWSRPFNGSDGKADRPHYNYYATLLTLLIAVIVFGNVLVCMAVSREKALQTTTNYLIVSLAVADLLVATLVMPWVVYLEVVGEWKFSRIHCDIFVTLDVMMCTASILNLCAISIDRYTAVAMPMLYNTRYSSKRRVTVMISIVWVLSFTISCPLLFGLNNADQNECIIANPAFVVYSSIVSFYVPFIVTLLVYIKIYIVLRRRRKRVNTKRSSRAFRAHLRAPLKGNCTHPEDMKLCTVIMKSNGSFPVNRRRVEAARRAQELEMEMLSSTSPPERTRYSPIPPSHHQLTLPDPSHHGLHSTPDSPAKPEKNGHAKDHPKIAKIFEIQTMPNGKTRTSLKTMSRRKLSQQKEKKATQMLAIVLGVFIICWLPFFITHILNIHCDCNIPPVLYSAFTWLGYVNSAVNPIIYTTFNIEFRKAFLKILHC
T3 sequence (P35346 whole entry): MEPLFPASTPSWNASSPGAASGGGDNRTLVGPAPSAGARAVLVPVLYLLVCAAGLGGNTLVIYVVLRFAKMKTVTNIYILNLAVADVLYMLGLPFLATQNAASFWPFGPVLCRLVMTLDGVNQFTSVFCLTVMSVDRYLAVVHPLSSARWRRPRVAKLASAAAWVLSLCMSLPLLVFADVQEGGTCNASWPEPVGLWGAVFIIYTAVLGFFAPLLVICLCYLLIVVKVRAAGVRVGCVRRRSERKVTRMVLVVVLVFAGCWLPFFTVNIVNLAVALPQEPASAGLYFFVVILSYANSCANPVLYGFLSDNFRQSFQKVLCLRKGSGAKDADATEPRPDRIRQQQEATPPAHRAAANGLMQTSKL
T2 sequence (P30872 whole entry): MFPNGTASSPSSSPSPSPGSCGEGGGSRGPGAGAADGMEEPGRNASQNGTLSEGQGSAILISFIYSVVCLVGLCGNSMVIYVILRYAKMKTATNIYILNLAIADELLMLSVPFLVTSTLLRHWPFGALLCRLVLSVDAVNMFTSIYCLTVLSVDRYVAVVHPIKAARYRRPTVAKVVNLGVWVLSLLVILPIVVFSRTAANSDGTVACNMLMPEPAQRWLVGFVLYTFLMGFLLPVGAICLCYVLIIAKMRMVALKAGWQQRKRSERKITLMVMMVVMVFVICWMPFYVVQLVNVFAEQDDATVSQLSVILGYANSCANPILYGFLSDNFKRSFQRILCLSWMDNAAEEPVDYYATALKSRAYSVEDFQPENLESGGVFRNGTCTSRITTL
T4 sequence (P31391 whole entry): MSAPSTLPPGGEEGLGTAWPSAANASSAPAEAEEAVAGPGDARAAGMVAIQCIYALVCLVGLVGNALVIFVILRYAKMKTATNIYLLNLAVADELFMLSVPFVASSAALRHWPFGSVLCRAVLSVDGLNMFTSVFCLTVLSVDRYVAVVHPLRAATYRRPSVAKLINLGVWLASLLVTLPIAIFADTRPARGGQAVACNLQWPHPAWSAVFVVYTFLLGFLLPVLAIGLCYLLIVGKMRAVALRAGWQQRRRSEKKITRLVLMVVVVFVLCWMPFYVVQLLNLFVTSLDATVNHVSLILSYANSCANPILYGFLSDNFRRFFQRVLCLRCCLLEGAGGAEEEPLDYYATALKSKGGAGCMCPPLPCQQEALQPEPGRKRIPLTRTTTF
T5 sequence (P32745 whole entry): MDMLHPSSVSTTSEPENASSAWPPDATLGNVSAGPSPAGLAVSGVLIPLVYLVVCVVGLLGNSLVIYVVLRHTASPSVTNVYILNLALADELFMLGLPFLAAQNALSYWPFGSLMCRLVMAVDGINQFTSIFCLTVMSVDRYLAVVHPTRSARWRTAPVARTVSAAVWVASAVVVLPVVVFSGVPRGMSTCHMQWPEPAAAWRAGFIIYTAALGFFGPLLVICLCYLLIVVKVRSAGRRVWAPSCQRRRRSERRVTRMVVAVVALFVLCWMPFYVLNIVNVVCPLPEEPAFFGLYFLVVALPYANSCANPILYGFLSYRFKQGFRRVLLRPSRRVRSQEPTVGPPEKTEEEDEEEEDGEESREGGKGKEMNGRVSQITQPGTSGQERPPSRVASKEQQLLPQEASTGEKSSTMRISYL

For the molecule `CC(=O)N(CCC(=O)NC(CN[C@@H]1CCCCNC(=O)[C@H](Cc2ccc(F)cc2)NC(=O)[C@H]([C@@H](C)O)NC(=O)[C@H](CCCCN)NC(=O)[C@@H](Cc2c[nH]c3ccccc23)NC(=O)[C@H](Cc2ccccc2)NC(=O)[C@H](Cc2ccccc2)NC(=O)[C@H](CCCNC(=N)N)NC1=O)Cc1ccc(O)cc1)C[C@@H]1C[C@@H]2c3cccc4[nH]cc(c34)C[C@H]2N(C)C1` (single isomer, unassigned) [Compound 27, 3-[N-acetyl-N-(D-6-methyl-8β-ergolinylmethyl)]-aminopropionyl-Tyr-psi(CH2NH)-cyclo(DLys-Arg-Phe-Phe-DTrp-Lys-Thr-4FPhe)], the Ki in experiment [1] was 277 ± 55.5 nM; in experiment [2], 24.4 ± 12 nM; in experiment [4] it was 0.53 ± 0.1 nM; in experiment [5] it was 7.3 ± 1.3 nM; in experiment [6], 0.9 ± 0.1 nM; in experiment [7] it was 0.32 ± 0.04 nM. For the same molecule, in experiment [3], the Emax was 86.3 ± 8%.

Consider `C[C@@H](O)[C@@H]1NC(=O)[C@H](CCCCN)NC(=O)[C@@H](Cc2c[nH]c3ccccc23)NC(=O)[C@H](Cc2ccncc2)NC(=O)[C@H](Cc2ccccc2)NC(=O)[C@H](CCCNC(=N)N)NC(=O)[C@H](NC[C@H](CCCCNC(=O)CSC[C@@H]2C[C@@H]3c4cccc5[nH]cc(c45)C[C@H]3N(C)C2)NC(=O)CSC[C@@H]2C[C@@H]3c4cccc5[nH]cc(c45)C[C@H]3N(C)C2)CCCCNC(=O)[C@H](Cc2ccc(O)cc2)NC1=O` [Compound 8, Dop1-Lys(Dop1)-psi(CH2NH)-cyclo(DLys-Arg-Phe-4Pal-DTrp-Lys-Thr-Tyr)], for which the Ki amounted to 113 ± 35 nM in experiment [1] (setting [9]); 106 ± 7.9 nM in experiment [2] (setting [10]); 1.49 ± 0.3 nM in experiment [4]; 60.7 ± 15.7 nM in experiment [5]; 7.5 ± 0.3 nM in experiment [6]; 0.21 ± 0.08 nM in experiment [7] (setting [11]). The Emax in experiment [3] is 94.7 ± 0.8%. Moreover, the “improvement in %Emax over Reference Compound C” value in experiment [8] (receptor not named) was “statistically significant improvement in %Emax”.

With `C[C@@H](O)[C@@H]1NC(=O)[C@H](CCCCN)NC(=O)[C@@H](Cc2c[nH]c3ccccc23)NC(=O)[C@H](Cc2ccncc2)NC(=O)[C@H](Cc2ccccc2)NC(=O)[C@H](CCCNC(=N)N)NC(=O)[C@H](NC[C@H](CCCCNC(=O)CSC[C@@H]2C[C@@H]3c4cccc5[nH]cc(c45)C[C@H]3N(C)C2)NC(=O)CSC[C@@H]2C[C@@H]3c4cccc5[nH]cc(c45)C[C@H]3N(C)C2)CCCCNC(=O)[C@H](Cc2ccccc2)NC1=O` [Compound 9, Dop1-Lys(Dop1)-psi(CH2NH)-cyclo(DLys-Arg-Phe-4Pal-DTrp-Lys-Thr-Phe)], the Ki in experiment [1] (setting [9]) came out at 39.2 ± 8.3 nM; in experiment [2] (setting [10]), 41.9 ± 21.1 nM; in experiment [4], 1.54 ± 0.3 nM; in experiment [5], 24 ± 3.6 nM; in experiment [6], 4 ± 0.5 nM; in experiment [7] (setting [11]), 0.13 ± 0.06 nM. For the same molecule, the Emax in experiment [3] was 92.8 ± 3.8%. Moreover, the “improvement in %Emax over Reference Compound C” value in experiment [8] (receptor not named) is “statistically significant improvement in %Emax”.

As to `C[C@@H](O)[C@@H]1NC(=O)[C@H](CCCCN)NC(=O)[C@@H](Cc2c[nH]c3ccccc23)NC(=O)[C@H](Cc2ccccc2)NC(=O)[C@H](Cc2ccccc2)NC(=O)[C@H](CCCNC(=N)N)NC(=O)[C@H](NC[C@H](Cc2ccc(O)cc2)NC(=O)CSC[C@@H]2C[C@@H]3c4cccc5[nH]cc(c45)C[C@H]3N(C)C2)CCCCNC(=O)[C@H](Cc2ccc(O)cc2)NC1=O` [Compound 33, Dop1-Tyr-psi(CH2NH)-cyclo(DLys-Arg-Phe-Phe-DTrp-Lys-Thr-Tyr)], the Ki in experiment [1] worked out at 15 ± 2.6 nM; in experiment [2] it was 10.4 ± 3.2 nM; in experiment [4], 0.82 ± 0.4 nM; in experiment [7] it was 0.24 ± 0.1 nM. The figures for the EC50 in experiment [3] and in experiment [8] were 51.8 ± 20.6 nM and 13.8 ± 5 nM, respectively. The Emax in experiment [3] came to 102 ± 12.5%. Also, the “improvement in EC50 and/or %Emax over Reference Compound B” value in experiment [8] (receptor not named) was “statistically significant improvement in EC50 and/or %Emax”.

What is called Ki is a dissociation constant, usually derived from enzyme kinetics or from competition with a known ligand. By Emax is commonly meant the size of the effect at its maximum, as opposed to the concentration needed. The EC50 is the concentration giving half of the maximal effect.
